Results from the OPERA property sets (Mansouri et al. 2018).
Values after ≈ are worked out from the molar mass of the structure shown.

Row | SMILES | solubility (20 °C) [µM] | solubility (25 °C) [µM] | other results
1 | CON(C(=O)c1cc(C)oc1C)C1CCCCC1 | 1.19 (≈ 0.3 µg/mL) |  | 
2 | O=S(=O)(O)OCCOc1ccc(Cl)cc1Cl |  |  | solubility: 871000 µM (≈ 250000 µg/mL)
3 | CC(=O)OC[C@H]([C@H](OC(C)=O)c1ccccc1)[N+](=O)[O-] | 107 (≈ 30 µg/mL) |  | 
4 | CCOC(=O)CNc1nc(Cl)nc(NC(C)C)n1 |  | 2740 (≈ 750 µg/mL) | 
5 | CCN(C(=O)Oc1cccc(NC(=O)OC(C)C)c1)c1ccccc1 |  | 8.76 (≈ 3 µg/mL) | 
6 | O=C1OCCC1N(C(=O)C1CC1)c1cccc(Cl)c1 (stereo not given) |  | 2050 (≈ 574 µg/mL) | 
7 | CCOC(=O)C(C)Oc1ccc(Oc2nc3ccc(Cl)cc3o2)cc1 (stereo not given) |  | 2.59 (≈ 0.937 µg/mL) | 
8 | Cc1cc(Cl)ccc1NC(=S)N(C)C | 219 (≈ 50 µg/mL) |  | 
9 | Clc1ccc(Sc2cc(Cl)c(Cl)cc2Cl)cc1 | 0.0926 (≈ 0.03 µg/mL) |  | 
10 | CCS(=O)(=O)c1nnc(N(C)C(=O)NC)s1 | 11400 (≈ 3000 µg/mL) |  | 
